Test results from US9675539B2, “Cosmetic and pharmaceutical compositions and methods using 2-decarboxy-2-phosphinico derivatives” (Duke University, priority 2000, dated 2017).
pIC50: −log10 of the molar value.

Biological target: hFP receptor (Homo sapiens (Human), UniProt P43088)
Experiment: Radioligand Binding Assay
Settings: competition with 5 nM (3H) PGF2α on hFP membranes from transfected COS-7 cells; read-out: IC50 the PGF
Description: IC50 of a prostaglandin can be determined relative to PGF2α using the Radioligand Binding Assay.
In this assay, COS-7 cells are transiently transfected with the hFP recombinant plasmid using LipofectAMINE Reagent. Forty-eight hours later, the transfected cells are washed with Hank's Balanced Salt Solution (HBSS, without CaCl2, MgCl2, MgSO4, or phenol red). The cells are detached with versene, and HBSS is added. The mixture is centrifuged at 200 g for 10 minutes, at 4° C. to pellet the cells. The pellet is resuspended in Phosphate-Buffered Saline-EDTA buffer (PBS; 1 mM EDTA; pH 7.4; 4° C.). […] The mixture is centrifuged at 1000 g for 10 minutes at 4° C. The supernatant is centrifuged at 100,000 g for 60 minutes at 4° C. The pellet is resuspended to 1 mg protein/mL TME buffer (50 mM Tris; 10 mM MgCl2; 0.1 mM EDTA; pH 6.0; 4° C.) based on protein levels measured using the Pierce BCA Protein Assay kit. […] The membrane preparations are then stored at −80° C., until thawed for assay use.
The receptor competition binding assays are developed in a 96 well format. Each well contains 100 g of hFP membrane, 5 nM (3 H) PGF2α, and the various competing compounds in a total volume of 200 L. The plates are incubated at 23° C. for 1 hour. […] The plates are read on a Packard TOPCOUNT® Microplate Scintillation Counter (also available from Packard Instrument Co., Inc.)

Chain of hFP receptor (P43088 whole entry): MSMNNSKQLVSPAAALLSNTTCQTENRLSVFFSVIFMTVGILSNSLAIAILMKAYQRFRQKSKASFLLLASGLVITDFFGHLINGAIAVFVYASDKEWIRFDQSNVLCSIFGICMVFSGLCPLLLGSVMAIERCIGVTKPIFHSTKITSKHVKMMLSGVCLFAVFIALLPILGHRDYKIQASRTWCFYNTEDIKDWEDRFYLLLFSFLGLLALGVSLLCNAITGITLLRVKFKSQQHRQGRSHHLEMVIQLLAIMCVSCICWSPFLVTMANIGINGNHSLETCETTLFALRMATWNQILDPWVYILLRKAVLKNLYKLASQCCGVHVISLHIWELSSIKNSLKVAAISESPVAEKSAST

SMILES: CCCCCC(O)/C=C/[C@@H]1[C@@H](C/C=C\CCC[PH](=O)O)[C@@H](O)C[C@H]1O (stereo partly shown) [Example 1-2]
- pIC50: 6.94
